Read-outs that look alike come from different tables or passages of the source.
How the values were obtained:
[1] = Compound stability in human liver microsomes; type: in vitro ADME; settings: for half-life at 5 μM: human liver microsomes 0.5 mg protein/mL, compound 5 μM, NADPH 1.0 mM, 37° C.; for CLint scaled at 5 μM: human liver microsomes, in vivo CLint extrapolated
[2] = Compound stability in rat liver microsomes; type: in vitro ADME; settings: pH 7.4; for half-life at 5 μM: rat liver microsomes 0.5 mg protein/mL, compound 5 μM, NADPH 1.0 mM, 37° C.; for CLint scaled at 5 μM: rat liver microsomes, in vivo CLint extrapolated
[3] = Pharmacokinetics after intravenous and oral administration in rats; type: in vivo, rat; settings: for clearance (CL) / AUC(0-t) / half-life / Vd: iv dosing; for bioavailability / AUC(0-t) / half-life / Vd: rat, plasma; for bioavailability: oral dose generally 5 or 10 mg/kg; for Vd: read-out: Vss
PI3K (p110α/p85α) (h) = PI3K (p110α/p85α) (h) (Homo sapiens (Human), UniProt P42336); test: PI3K (p110α/p85α) (h) non-radioactive HTRF kinase assay; type: biochemical
Sequence of PI3K (p110α/p85α) (h) (P42336 whole entry): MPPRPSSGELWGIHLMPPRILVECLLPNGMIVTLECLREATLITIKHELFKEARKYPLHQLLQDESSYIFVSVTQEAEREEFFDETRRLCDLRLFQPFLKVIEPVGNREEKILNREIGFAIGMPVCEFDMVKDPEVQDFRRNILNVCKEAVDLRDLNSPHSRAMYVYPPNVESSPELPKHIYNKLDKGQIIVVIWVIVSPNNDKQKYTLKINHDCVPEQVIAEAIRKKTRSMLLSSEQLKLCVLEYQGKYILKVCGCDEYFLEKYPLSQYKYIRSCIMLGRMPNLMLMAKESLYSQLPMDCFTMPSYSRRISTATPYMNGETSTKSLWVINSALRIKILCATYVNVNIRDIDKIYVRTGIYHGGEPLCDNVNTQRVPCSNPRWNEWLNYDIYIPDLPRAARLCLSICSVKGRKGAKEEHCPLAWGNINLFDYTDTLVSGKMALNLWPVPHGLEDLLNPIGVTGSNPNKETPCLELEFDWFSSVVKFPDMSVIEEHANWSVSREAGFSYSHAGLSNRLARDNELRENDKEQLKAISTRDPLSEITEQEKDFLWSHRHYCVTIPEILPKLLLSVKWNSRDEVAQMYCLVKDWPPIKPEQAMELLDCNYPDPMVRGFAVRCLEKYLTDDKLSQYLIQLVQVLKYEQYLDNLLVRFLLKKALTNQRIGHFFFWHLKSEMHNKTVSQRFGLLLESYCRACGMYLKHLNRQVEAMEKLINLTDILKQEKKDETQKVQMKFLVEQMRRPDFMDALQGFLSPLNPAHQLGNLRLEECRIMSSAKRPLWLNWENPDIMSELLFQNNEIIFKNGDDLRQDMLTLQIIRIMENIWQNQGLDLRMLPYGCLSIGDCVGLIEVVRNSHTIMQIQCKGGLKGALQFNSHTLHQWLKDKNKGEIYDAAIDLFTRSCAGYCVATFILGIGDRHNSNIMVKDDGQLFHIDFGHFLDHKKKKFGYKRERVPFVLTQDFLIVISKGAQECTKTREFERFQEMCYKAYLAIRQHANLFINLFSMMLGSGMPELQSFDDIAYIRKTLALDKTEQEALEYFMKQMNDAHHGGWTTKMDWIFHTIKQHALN
Sequence of PI3K (p110α/p85α) (h) (P27986 whole entry partner): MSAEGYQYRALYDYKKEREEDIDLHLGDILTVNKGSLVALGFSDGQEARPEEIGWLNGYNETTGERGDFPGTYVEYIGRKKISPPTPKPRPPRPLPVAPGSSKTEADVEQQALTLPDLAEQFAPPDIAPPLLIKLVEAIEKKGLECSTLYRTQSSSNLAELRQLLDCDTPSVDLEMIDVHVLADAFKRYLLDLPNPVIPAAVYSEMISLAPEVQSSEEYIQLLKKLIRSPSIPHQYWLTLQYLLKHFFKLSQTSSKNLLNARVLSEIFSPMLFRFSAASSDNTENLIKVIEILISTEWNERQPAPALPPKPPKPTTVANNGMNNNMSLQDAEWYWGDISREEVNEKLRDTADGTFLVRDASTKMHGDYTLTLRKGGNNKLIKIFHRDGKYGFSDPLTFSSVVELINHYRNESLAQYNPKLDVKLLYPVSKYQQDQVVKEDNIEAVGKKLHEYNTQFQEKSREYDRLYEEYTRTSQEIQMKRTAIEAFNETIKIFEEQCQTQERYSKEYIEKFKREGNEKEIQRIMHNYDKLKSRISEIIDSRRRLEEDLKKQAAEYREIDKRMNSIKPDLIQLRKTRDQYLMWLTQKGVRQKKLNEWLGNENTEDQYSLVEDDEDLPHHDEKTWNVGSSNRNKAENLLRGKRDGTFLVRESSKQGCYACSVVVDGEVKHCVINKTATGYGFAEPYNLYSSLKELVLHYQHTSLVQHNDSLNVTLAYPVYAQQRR

PI3K (p110β/p85α) (h) = PI3K (p110β/p85α) (h) (Homo sapiens (Human), UniProt P42338); test: PI3K (p110β/p85α) (h) non-radioactive HTRF kinase assay; type: biochemical
Sequence of PI3K (p110β/p85α) (h) (P42338 whole entry): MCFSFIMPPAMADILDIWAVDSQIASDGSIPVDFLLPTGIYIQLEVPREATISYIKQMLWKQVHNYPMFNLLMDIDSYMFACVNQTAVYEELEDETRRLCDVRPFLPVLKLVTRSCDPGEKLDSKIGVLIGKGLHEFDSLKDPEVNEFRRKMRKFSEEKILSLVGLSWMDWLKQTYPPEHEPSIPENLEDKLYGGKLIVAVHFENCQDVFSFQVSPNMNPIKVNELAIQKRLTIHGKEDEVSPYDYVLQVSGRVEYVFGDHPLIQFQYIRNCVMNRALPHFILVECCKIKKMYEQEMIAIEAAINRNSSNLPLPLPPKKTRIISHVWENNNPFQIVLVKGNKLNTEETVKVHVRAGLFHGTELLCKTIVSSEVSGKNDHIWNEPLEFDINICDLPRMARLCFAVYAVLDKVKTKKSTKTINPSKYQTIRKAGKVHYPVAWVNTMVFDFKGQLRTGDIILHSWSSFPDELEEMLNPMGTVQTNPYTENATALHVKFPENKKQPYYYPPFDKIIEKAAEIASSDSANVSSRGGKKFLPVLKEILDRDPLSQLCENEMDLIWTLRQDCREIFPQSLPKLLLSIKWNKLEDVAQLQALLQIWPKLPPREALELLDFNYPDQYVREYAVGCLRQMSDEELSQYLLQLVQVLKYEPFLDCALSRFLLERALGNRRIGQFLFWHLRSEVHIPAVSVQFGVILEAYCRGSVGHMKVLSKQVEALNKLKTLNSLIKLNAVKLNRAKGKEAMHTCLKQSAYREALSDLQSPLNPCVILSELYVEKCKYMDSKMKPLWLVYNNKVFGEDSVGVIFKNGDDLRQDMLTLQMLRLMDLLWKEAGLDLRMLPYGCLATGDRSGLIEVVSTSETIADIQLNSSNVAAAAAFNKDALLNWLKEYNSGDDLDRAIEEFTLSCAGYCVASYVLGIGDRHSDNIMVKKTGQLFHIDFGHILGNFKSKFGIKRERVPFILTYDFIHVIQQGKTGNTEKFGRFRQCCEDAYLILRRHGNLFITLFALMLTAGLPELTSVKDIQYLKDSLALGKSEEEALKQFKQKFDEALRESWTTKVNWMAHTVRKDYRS
Sequence of PI3K (p110β/p85α) (h) (P27986 whole entry partner): as the sequence (P27986 whole entry partner) above

PI3K (p110δ/p85α) (h) = PI3K (p110δ/p85α) (h) (Homo sapiens (Human), UniProt O00329); test: PI3K (p110δ/p85α) (h) non-radioactive HTRF kinase assay; type: biochemical
Sequence of PI3K (p110δ/p85α) (h) (O00329 whole entry): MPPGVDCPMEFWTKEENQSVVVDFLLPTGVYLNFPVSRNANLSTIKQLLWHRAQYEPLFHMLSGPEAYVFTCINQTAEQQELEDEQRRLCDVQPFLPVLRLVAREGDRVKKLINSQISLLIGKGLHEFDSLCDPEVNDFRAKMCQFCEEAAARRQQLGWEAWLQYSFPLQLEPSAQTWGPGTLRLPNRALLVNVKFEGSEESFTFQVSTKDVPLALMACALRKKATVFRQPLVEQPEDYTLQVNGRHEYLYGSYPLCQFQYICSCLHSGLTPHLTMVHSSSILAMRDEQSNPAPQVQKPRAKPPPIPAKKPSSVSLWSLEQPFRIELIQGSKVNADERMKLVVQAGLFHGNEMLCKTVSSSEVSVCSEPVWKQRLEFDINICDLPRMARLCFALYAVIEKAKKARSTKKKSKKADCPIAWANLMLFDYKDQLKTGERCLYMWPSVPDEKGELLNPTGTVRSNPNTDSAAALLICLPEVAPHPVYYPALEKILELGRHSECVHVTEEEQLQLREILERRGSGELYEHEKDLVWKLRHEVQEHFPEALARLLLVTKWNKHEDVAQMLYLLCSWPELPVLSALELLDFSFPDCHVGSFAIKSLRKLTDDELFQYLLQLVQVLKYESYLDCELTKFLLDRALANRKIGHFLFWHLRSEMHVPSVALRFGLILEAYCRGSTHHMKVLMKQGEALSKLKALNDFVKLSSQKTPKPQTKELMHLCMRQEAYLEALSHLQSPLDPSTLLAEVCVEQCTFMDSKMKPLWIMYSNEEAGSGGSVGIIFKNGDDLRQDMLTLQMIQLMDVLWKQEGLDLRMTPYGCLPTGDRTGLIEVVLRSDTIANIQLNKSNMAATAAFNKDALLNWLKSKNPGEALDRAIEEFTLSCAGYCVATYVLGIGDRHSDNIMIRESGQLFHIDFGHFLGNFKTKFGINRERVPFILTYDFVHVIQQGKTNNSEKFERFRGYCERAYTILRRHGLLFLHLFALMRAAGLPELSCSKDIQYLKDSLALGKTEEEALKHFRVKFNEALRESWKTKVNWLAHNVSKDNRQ
Sequence of PI3K (p110δ/p85α) (h) (P27986 whole entry partner): as the sequence (P27986 whole entry partner) above

PI3K (p120γ) (h) = PI3K (p120γ) (h) (Homo sapiens (Human), UniProt P48736); test: PI3K (p120γ) (h) non-radioactive HTRF kinase assay; type: biochemical
Sequence of PI3K (p120γ) (h) (P48736 whole entry): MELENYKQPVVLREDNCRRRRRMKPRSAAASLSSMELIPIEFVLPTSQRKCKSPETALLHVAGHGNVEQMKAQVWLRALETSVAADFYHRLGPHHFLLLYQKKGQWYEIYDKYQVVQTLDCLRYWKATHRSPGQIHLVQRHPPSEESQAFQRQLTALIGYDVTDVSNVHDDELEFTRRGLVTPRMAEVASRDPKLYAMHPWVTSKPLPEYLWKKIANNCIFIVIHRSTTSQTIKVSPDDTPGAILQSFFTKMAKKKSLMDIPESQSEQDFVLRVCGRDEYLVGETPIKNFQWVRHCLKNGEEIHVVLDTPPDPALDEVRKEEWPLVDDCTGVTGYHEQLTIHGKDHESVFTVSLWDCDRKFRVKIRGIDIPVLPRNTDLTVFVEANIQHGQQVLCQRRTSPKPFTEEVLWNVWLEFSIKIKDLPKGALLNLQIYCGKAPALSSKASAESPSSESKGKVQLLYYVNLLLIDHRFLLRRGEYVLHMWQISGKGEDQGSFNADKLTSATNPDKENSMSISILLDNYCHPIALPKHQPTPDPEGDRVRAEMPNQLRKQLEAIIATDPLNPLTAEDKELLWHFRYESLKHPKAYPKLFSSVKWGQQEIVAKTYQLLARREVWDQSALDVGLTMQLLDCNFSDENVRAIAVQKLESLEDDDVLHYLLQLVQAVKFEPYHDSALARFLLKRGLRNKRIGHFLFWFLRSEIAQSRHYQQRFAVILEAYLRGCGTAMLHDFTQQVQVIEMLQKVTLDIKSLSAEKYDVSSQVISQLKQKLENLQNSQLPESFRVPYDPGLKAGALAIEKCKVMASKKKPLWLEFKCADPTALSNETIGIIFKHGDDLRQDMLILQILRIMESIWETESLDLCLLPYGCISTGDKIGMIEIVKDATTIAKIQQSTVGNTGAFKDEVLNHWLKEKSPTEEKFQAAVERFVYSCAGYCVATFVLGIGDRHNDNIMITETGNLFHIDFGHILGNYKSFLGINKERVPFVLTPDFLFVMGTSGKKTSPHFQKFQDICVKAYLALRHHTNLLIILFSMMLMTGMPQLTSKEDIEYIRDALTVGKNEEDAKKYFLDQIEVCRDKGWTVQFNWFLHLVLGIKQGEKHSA

SMILES	half-life at 5 μM [1] [min]	CLint scaled at 5 μM [1] [mL/min/kg]	half-life at 5 μM [2] [min]	CLint scaled at 5 μM [2] [mL/min/kg]	clearance (CL) ([3]; dose 1 mg/kg) [mL/min/kg]	bioavailability ([3]; iv dose 1 mg/kg) [%]	AUC(0-t) ([3]; dose 1 mg/kg) [ng·h/mL]	half-life ([3]; dose 1 mg/kg) [min]	Vd ([3]; dose 1 mg/kg) [L/kg]	IC50 (PI3K (p110α/p85α) (h)) [nM]	IC50 (PI3K (p110β/p85α) (h)) [nM]	IC50 (PI3K (p110δ/p85α) (h)) [nM]	IC50 (PI3K (p120γ) (h)) [nM]	clearance (CL) ([3]; dose 0.5 mg/kg) [mL/min/kg]	bioavailability ([3]; iv dose 0.5 mg/kg) [%]	AUC(0-t) ([3]; dose 0.5 mg/kg) [ng·h/mL]	half-life ([3]; dose 0.5 mg/kg) [min]	Vd ([3]; dose 0.5 mg/kg) [L/kg]
CC[C@H](Nc1ncnc(N)c1-c1nnc(C)o1)c1nc2cccc(Cl)c2c(=O)n1-c1ccccc1 [Ex. 1, (S)-2-(1-((6-amino-5-(5-methyl-1,3,4-oxadiazol-2-yl)pyrimidin-4-yl)amino)-propyl)-5-chloro-3-phenylquinazolin-4(3H)-one]	53.5	32.5	17.5	142	–	–	–	–	–	–	–	3	384	47.3	32.3	355	46.8	3.68
CC[C@H](Nc1ncnc(N)c1-c1nc(C)no1)c1nc2cccc(Cl)c2c(=O)n1-c1ccccc1 [Ex. 3, (S)-2-(1-((6-amino-5-(3-methyl-1,2,4-oxadiazol-5-yl)pyrimidin-4-yl)amino)-propyl)5-chloro-3-phenylquinazolin-4(3H)-one]	36.7	47.4	31	80.2	70.8	64.5	237	71.4	6.23	442	142	2	66	–	–	–	–	–
CC[C@H](Nc1ncnc(N)c1-c1ncnn1C)c1nc2cccc(Cl)c2c(=O)n1-c1ccccc1 [Ex. 10, 2-((1S)-1-((6-amino-5-(1-methyl-1H-1,2,4-triazol-5-yl)pyrimidin-4-yl)amino)propyl)-5-chloro-3-phenylquinazolin-4(3H)-one]	92	18.9	70.1	35.4	–	–	–	–	–	–	> 3000	2510	–	3.5	40.2	2420	72	0.3
CC[C@H](Nc1ncnc(N)c1-c1ccccn1)c1nc2cccc(Cl)c2c(=O)n1C1CC1 [Ex. 11, (S)-2-(1-((6-amino-5-(pyridin-2-yl)pyrimidin-4-yl)amino)propyl)-5-chloro-3-cyclopropylquinazolin-4(3H)-one]	78.2	22.2	62.2	39.9	–	–	–	–	–	–	> 3000	1470	–	4.83	38.5	1690	157	0.59
CC[C@H](Nc1ncnc(N)c1-c1ncc(C)o1)c1nc2cccc(Cl)c2c(=O)n1C1CC1 [Ex. 7, (S)-2-(1-((6-amino-5-(5-methyloxazol-2-yl)pyrimidin-4-yl)amino)propyl)-5-chloro-3-cyclopropylquinazolin-4(3H)-one]	19.4	89.7	10.5	237	54.8	45.7	300	79.8	5.82	–	2780	246	–	–	–	–	–	–
CC[C@H](Nc1ncnc(N)c1C1=N[C@@H](C)CO1)c1nc2cccc(Cl)c2c(=O)n1-c1ccccc1 [Ex. 6, 2-((S)-1((6-amino-5-((S)-4-methyl-4,5-dihydrooxazol-2-yl)pyrimidin-4-yl)amino)propyl)-5-chloro-3-phenylquinazolin-4(3H)-one]	3.11	560	3.44	722	110	5.56	151	69	6.75	–	> 3000	99	–	–	–	–	–	–
CC[C@H](Nc1ncnc(N)c1-c1nnc(C)o1)c1nc2cccc(C)c2c(=O)n1-c1ccccc1C [Ex. 31, (S)-2-(1-((6-amino-5-(5-methyl-1,3,4-oxadiazol-2-yl)pyrimidin-4-yl)amino)propyl)-5-methyl-3-(o-tolyl)quinazolin-4(3H)-one]	7.56	328	7.27	342	64.8	16.2	260	42	3.42	–	–	18	–	–	–	–	–	–
CC[C@H](Nc1ncnc(N)c1-c1nnc(C)o1)c1nc2cccc(F)c2c(=O)n1C1CC1 [Ex. 25, (S)-2-(1-((6-amino-5-(5-methyl-1,3,4-oxadiazol-2-yl)pyrimidin-4-yl)amino)-propyl)-3-cyclopropyl-5-fluoroquinazolin-4(3H)-one]	150	16.6	49.9	49.8	75.7	62.3	223	48.6	3.77	–	–	298	–	–	–	–	–	–

The next lines start with the values.

half-life at 5 μM [1] [min]	CLint scaled at 5 μM [1] [mL/min/kg]	half-life at 5 μM [2] [min]	CLint scaled at 5 μM [2] [mL/min/kg]	clearance (CL) ([3]; dose 1 mg/kg) [mL/min/kg]	bioavailability ([3]; iv dose 1 mg/kg) [%]	AUC(0-t) ([3]; dose 1 mg/kg) [ng·h/mL]	half-life ([3]; dose 1 mg/kg) [min]	Vd ([3]; dose 1 mg/kg) [L/kg]	IC50 (PI3K (p110α/p85α) (h)) [nM]	IC50 (PI3K (p110β/p85α) (h)) [nM]	IC50 (PI3K (p110δ/p85α) (h)) [nM]	IC50 (PI3K (p120γ) (h)) [nM]	clearance (CL) ([3]; dose 0.5 mg/kg) [mL/min/kg]	bioavailability ([3]; iv dose 0.5 mg/kg) [%]	AUC(0-t) ([3]; dose 0.5 mg/kg) [ng·h/mL]	half-life ([3]; dose 0.5 mg/kg) [min]	Vd ([3]; dose 0.5 mg/kg) [L/kg]	SMILES
41	42.4	22.4	111	84.3	46.5	200	65.4	6.68	1200	35	5	261	–	–	–	–	–	Cc1noc(-c2c(N)ncnc2N[C@@H](C)c2nc3cccc(Cl)c3c(=O)n2C2CC2)n1 [Ex. 41, (S)-2-(1-((6-amino-5-(3-methyl-1,2,4-oxadiazol-5-yl)pyrimidin-4-yl)amino)-ethyl)-5-chloro-3-cyclopropylquinazolin-4(3H)-one]
47.9	36.3	17.9	139	–	–	–	–	–	> 3000	1320	18	269	–	–	–	–	–	Cc1noc(-c2c(N)ncnc2N[C@@H](C)c2nc3cccc(F)c3c(=O)n2-c2ccccc2)n1 [Ex. 63, (S)-2-(1-((6-amino-5-(3-methyl-1,2,4-oxadiazol-5-yl)pyrimidin-4-yl)amino)ethyl)-5-fluoro-3-phenylquinazolin-4(3H)-one]
29.8	58.3	8.94	278	–	–	–	–	–	> 3000	1360	12	> 3000	–	–	–	–	–	CC[C@H](Nc1ncnc(N)c1-c1nnc(C)o1)c1nc2cccc(Cl)c2c(=O)n1-c1cccc(F)c1 [Ex. 34, (S)-2-(1-((6-amino-5-(5-methyl-1,3,4-oxadiazol-2-yl)pyrimidin-4-yl)amino)-propyl)-5-chloro-3-(3-fluorophenyl)quinazolin-4(3H)-one]
22.6	76.9	18.2	136	27.3	59.8	609	115	1.64	–	–	135	–	–	–	–	–	–	CC[C@H](Nc1ncnc(N)c1-c1ccn(C)n1)c1nc2cccc(Cl)c2c(=O)n1C1CC1 [Ex. 51, (S)-2-(1-((6-amino-5-(1-methyl-1H-pyrazol-3-yl)pyrimidin-4-yl)amino)propyl)-5-chloro-3-cyclopropylquinazolin-4(3H)-one]

From patent US9670194B2 (Calitor Sciences, LLC, priority 2013, dated 2017)
